Results: patent publication US20160106711A1, “3-3-Di-Substituted-Oxindoles as Inhibitors of Translation Initiation” (President and Fellows of Harvard College, priority 2012, published 2016)

Experiments:
[1] = system: eIF2•GTP•Met-tRNAi ternary complex; assay: Ternary complex assay (ATF-4 assay), dual luciferase firefly/renilla ratio; type: cell-based, mouse; conditions: for maximal fold induction at 40 µM: read-out: ATF-4 Xmax @ 40 μM
Text: For assay development, a bi-directional plasmid was designed in which a common promoter/enhancer complex drives the transcription of firefly luciferase (F-luc) ORF fused to the 5′ untranslated region (UTR) of ATF-4, and of the renilla luciferase (R-luc) ORF fused to a 90-nucleotide 5′ UTR derived from the plasmid (FIG. 6A). Because the tetracycline-regulated transactivator ((tTA), required for driving transcription from this vector) is not normally expressed in the mammalian cells, stable KLN cancer cells were constructed that expressed tTA (KLN-tTA).
The KLN-tTA colonies that drove expression of reporter genes from pBISA-DL plasmid were selected by transient transfection and dual luciferase assay. One of these KLN-tTA cell lines was transfected with the pBISA-DL^(ATF-4) expression vector, stable colonies were selected by dual luciferase assay and expanded.
Plasmids and Ternary Complex Assay
(ATF-4 Assay). Briefly, bi-directional mammalian expression vector pBI (Clontech, CA) was modified to expand the multiple cloning sites (MCSs) and designated thereafter as pBISA. This vector contains seven copies of the tetracycline-regulated transactivator response element (TRE), which together act as core promoter/enhancer. The TRE is flanked on both sides by minimal human cytomegalovirus (CMV) minimal promoters allowing bi-directional transcription and two MCSs. Firefly and renilla luciferases were subcloned into MCS-I and MCS-II, respectively. This plasmid, designated pBISA-DL, transcribes two mRNAs that contain the 90 nucleotide plasmid derived 5′UTR (same sequence in both mRNAs), and the ORF encoding either firefly or renilla luciferase followed by a polyadenylation sequence as described in Ziegeler, G.; Ming, J.; Koseki, J. C.; Sevinc, S.; Chen, T.; Ergun, S.; Qin, X.; Aktas, B. H. J. Biol. Chem. 2010, 285, 15408 hereby incorporated by reference. This plasmid was further modified by inserting the 5′UTR of ATF-4 into MCS-I in front of the firefly luciferase mRNA. Transcription from this direction generates an mRNA that contains the firefly luciferase ORF preceded by a 5′UTR composed of 90 nucleotides derived from the plasmid and 267 nucleotides derived from the 5′UTR of ATF-4 mRNA. Transcription from the other direction generates an mRNA that contains the renilla luciferase ORF proceeded only by the 90-nucleotide plasmid-derived sequence in the 5′UTR. This expression plasmid is called pBISA-DL(ATF-4). In the dual luciferase assay, cells expressing firefly and renilla luciferases were lysed and the extracts assayed with a Dual-Glo Luciferase assay kit, per manufacturer's instruction (Promega Inc., Madison, Wis.). The data calculations were carried out as the ratio of firefly to renilla luciferase signal as described in Chen, T.; Ozel, D.; Qiao, Y.; Harbinski, F.; Chen, L.; Denoyelle, S.; He, X.; Zvereva, N.; Supko, J. G.; Chorev, M.; Halperin, J. A.; Aktas, B. H. Nat. Chem. Biol. 2011, 7, 610 hereby incorporated by reference.

[2] = system: CRL-2351; assay: Cell growth assay (sulforhodamine B), CRL-2351 cells; type: cell-based, human; conditions: 5 days, SRB
Procedure: (§1) Adherent mouse (KLN) and human solid tumor cells (CRL-2351, and CRL-2813) were plated in 96-well plates and maintained for 5 days in the presence of 0.54 to 6 μM of individual compound, and cell proliferation was measured by the sulforhodamine B (SRB) assay as described in ref. 11: briefly, cells were fixed in 10% cold trichloroacetic acid at 4° C. for 1 h, extensively washed with double-distilled H2O and air-dried. Plates were then incubated with 0.4% SRB in 1% acetic acid for 1 h, washed with 1% acetic acid to remove the unbound dye, and air-dried. The bound dye was solubilized by addition of 10 mM Tris (pH 10), and the absorbance was determined in a Titertek Multiscan plate reader at 490 nm. The data calculations were carried out as described (the values for mean±SD of data from replicate wells are calculated): data are expressed in terms of % T/C [(OD of treated cells/OD of control cells)×100], as a measure of cell viability and survival in the presence of test materials. Calculations are also made for the concentration of test agents giving a T/C value of 50%, or 50% growth inhibition (IC50). With the SRB assay, a measure is made of the cell population density at time 0 (the time at which drugs are added) from two extra reference plates of inoculated cells fixed with TCA just prior to drug addition to the test plates. Thus, we have three measurements: control optical density (C), test optical density (T), and optical density at time zero (T0). The calculation is 100×[(T−T0)/(C−T0)]. If T is less than T0, cell killing has occurred and can be calculated from 100×[(T−T0)/T0]. Thus, for each drug-cell line combination, a dose-response curve is generated and three levels of effect are calculated.

[3] = system: KLN; assay: Cell growth assay (sulforhodamine B), KLN cells; type: cell-based, mouse; conditions: 5 days, SRB
Procedure: as §1, with “Adherent mouse (KLN) and human solid tumor cells (CRL-2351, and CRL-2813) were plated in 96-well plates and maintained for 5 days in the presence of 0.54 to 6 μM of individual compound, and cell proliferation was measured by the sulforhodamine B (SRB) assay as described in ref. 11: briefly, cells were fixed in 10% cold trichloroacetic acid at 4° C. for 1 h, extensively washed with double-distilled H2O and air-dried.” left out

[4] = system: CRL-2813; assay: Cell growth assay (sulforhodamine B), CRL-2813 cells; type: cell-based, human; conditions: 5 days, SRB
Procedure: as §1

[5] = Mus musculus, read-out: ATF-4 Xmax
[6] = Mus musculus, 80 uM, read-out: ATF-4 Xmax

Row | SMILES | IC50 ([2]; Homo sapiens, 120 h) [µM] | IC50 ([3]; Mus musculus, 120 h) [µM] | IC50 ([4]; Homo sapiens, CRL2813, 120 h) [µM] | maximal fold induction at 40 µM ([1]; Mus musculus) | further results
1 | COC(=O)c1cccc2c1NC(=O)C2(c1ccc(OC)cc1)c1cc(C(C)(C)C)ccc1OCCN1CCOCC1 (centres unmarked) [Sd203, Methyl 3-{5-tert-butyl-2-[2-(morpholin-4-yl)ethoxy]phenyl}-3-(4-methoxyphenyl)-2-oxoindole-7-carboxylate] | 16.3 ± 1.6 | 17 ± 3.5 | 14.6 ± 2.8 | – | maximal fold induction at 5 µM ([1]; Mus musculus, cell prints 5 (uM), read-out: ATF-4 Xmax): 1.51 ± 0.3
2 | Cc1cc(C2(c3cc(C(C)(C)C)ccc3O)C(=O)Nc3ccccc32)ccc1Cl (centres unmarked) [HY017, 3-(5-tert-Butyl-2-Hydroxyphenyl)-3-(4-Chloro-3-Methylphenyl)Indolin-2-One] | 2.9 ± 0.1 | 4.3 ± 1 | 2.9 ± 0.1 | 0.65 ± 0.7 | –
3 | CC(C)(C)c1ccc(OCCN2CCCC2)c(C2(c3cc(C(C)(C)C)ccc3OCCN3CCCC3)C(=O)N(CCN3CCCC3)c3ccccc32)c1 [HY193] | 0.55 ± 0.17 | 2.11 ± 1.1 | 1.47 ± 1 | 9.09 | maximal fold induction at 2.5 µM [1, 5]: 12.1 ± 1.8
4 | COc1ccc(C2(c3cc(C(C)(C)C)ccc3O)C(=O)Nc3c2ccc(F)c3F)cc1 (centres unmarked) [Sd140] | 0.95 ± 0.08 | 12.3 ± 2 | 3 | 1.2 ± 0.46 | –
5 | CN(C)c1ccc(C2(c3cc(C(C)(C)C)ccc3OCCN3CCOCC3)C(=O)Nc3ccccc32)cc1 (centres unmarked) [Sd154, 3-{5-tert-butyl-2-[2-(morpholin-4-yl)ethoxy]phenyl}-3-[4-(dimethylamino)phenyl]-indol-2-one] | 4.7 ± 0.3 | 2.2 ± 0.6 | 7.5 ± 1 | 7.15 ± 0.49 | –
6 | CCCCc1ccc(O)c(C2(c3cc(CCCC)ccc3O)C(=O)Nc3ccccc32)c1 [HY048, 3,3-Bis(5-Butyl-2-Hydroxyphenyl)Indolin-2-One] | 1.9 ± 0.5 | 14.3 ± 1.6 | 3 | – | maximal fold induction at 20 µM [1, 5]: 5 ± 1.5
7 | CC(C)(C)c1ccc(O)c(C2(c3cc(C(C)(C)C)ccc3OCCBr)C(=O)Nc3ccccc32)c1 (centres unmarked) [HY083] | 2.4 ± 1.6 | 11.4 ± 2.2 | 1 ± 0.9 | 12.9 ± 2.11 | –
8 | CC(C)(C)c1cccc(C2(c3cc(C(C)(C)C)ccc3O)C(=O)N(CCBr)c3ccccc32)c1 (centres unmarked) [HY283] | 1.5 ± 0.7 | > 20 | 1.4 ± 0.4 | 9.6 ± 0.16 | –
9 | CC(C)(C)c1ccc(OCCO)c(C2(c3cc(C(C)(C)C)ccc3OCCO)C(=O)Nc3ccccc32)c1 [HY169] | 2.7 ± 0.3 | 11 ± 2.4 | 2.9 ± 0.1 | – | maximal fold induction at 20 µM [1, 5]: 3.4 ± 0.1
10 | CC(C)(C)c1ccc(O)c(C2(c3ccc(CN4CCOCC4)cc3)C(=O)Nc3ccccc32)c1 (centres unmarked) [HY016, 3-(5-tert-butyl-2-hydroxyphenyl)-3-(4-(Morpholinomethyl)phenyl)Indolin-2-One] | 7.3 ± 3.6 | 17.3 ± 2.4 | 7.8 ± 0.66 | – | maximal fold induction at 80 µM [1, 6]: 8.5 ± 5.3
11 | COc1ccc(C2(c3cc(C(C)(C)C)ccc3OCCN3CCOCC3)C(=O)Nc3ccc(I)cc32)cc1 (centres unmarked) [Sd204, 3-{5-tert-butyl-2-[2-(morpholin-4-yl)ethoxy]phenyl}-5-iodo-3-(4-methoxyphenyl)indol-2-one] | 6.1 ± 1.7 | 12 ± 1.2 | 2.6 ± 0.4 | 4.5 ± 0.93 | –
12 | O=C1Nc2ccccc2C1(c1ccccc1)c1cc(C2CCCC2)ccc1O (centres unmarked) [Compound 1289, reference compound] | 3.2 ± 1 | 16 ± 2.2 | 2.5 ± 0.3 | 2.87 ± 2.19 | –
13 | CN(C)c1ccc(C2(c3cc(C(C)(C)C)ccc3O)C(=O)Nc3ccccc32)cc1 (centres unmarked) [Sd153] | 2.3 ± 0.3 | 10.9 ± 1.3 | 11 | 3.55 | –
14 | CCOC(=O)COc1ccccc1C1(c2cc(C(C)(C)C)ccc2OCC(=O)OCC)C(=O)Nc2ccccc21 (centres unmarked) [HY067] | – | – | – | – | ATF-4 Xmax ([1]; 80 uM): 1.19 ± 0.19/80 uM; IC50 [2]: 2.1 ± 1.1 µM; IC50 [3]: 19.8 ± 1.3 µM; IC50 [4]: 0.24 µM
15 | CC(C)(C)c1ccc(C2(c3cc(C(C)(C)C)ccc3O)C(=O)Nc3ccccc32)c(OCCO)c1 (centres unmarked) [HY069] | 8.8 ± 0.9 | > 20 | 2.9 ± 0.3 | 10.7 ± 1 | –
16 | COc1ccc(C2(c3cc(C(C)(C)C)ccc3OCCN3CCOCC3)C(=O)Nc3ccccc32)cc1F (centres unmarked) [Sd205] | 2.5 ± 0.6 | 3.4 ± 1.2 | 2.7 ± 0.4 | – | maximal fold induction at 80 µM [1, 6]: 5.2 ± 2.1
17 | CC(C)(C)c1ccc(O)c(C2(c3cc(C(C)(C)C)ccc3OCCN3CCCCC3)C(=O)Nc3ccccc32)c1 (centres unmarked) [HY072] | 0.7 ± 0.1 | 2.9 ± 0.4 | 3.35 ± 0.5 | – | maximal fold induction at 20 µM [1, 5]: 4.15 ± 0.5
18 | CN(C)CCOc1ccc(C(C)(C)C)cc1C1(c2cc(C(C)(C)C)ccc2O)C(=O)N(CCN(C)C)c2ccccc21 (centres unmarked) [HY277] | 0.3 ± 0.11 | 0.3 ± 0.1 | 0.9 ± 0.1 | – | maximal fold induction at 10 µM ([1]; Mus musculus, 10 uM, read-out: ATF-4 Xmax): 14.3 ± 1.86
19 | CC(C)(C)c1ccc(O)c(C2(c3ccc(O)cc3)C(=O)Nc3c2ccc(F)c3F)c1 (centres unmarked) [Sd141] | > 20 | 15.3 ± 1.9 | 10.7 ± 3.9 | 2.9 ± 0.6 | –
20 | CC(C)Oc1ccc(O)c(C2(c3cc(OC(C)C)ccc3O)C(=O)Nc3ccccc32)c1 [HY037, 3,3-Bis(2-Hydroxy-5-Isopropoxyphenyl)Indolin-2-One] | 3.6 ± 0.6 | > 20 | 5.6 ± 0.8 | – | maximal fold induction at 80 µM [1, 6]: 2.79 ± 0.9
21 | CC(C)(C)c1ccc(OCCN2CCNCC2)c(C2(c3ccccc3)C(=O)Nc3ccccc32)c1 (centres unmarked) [Sd049, 33-{5-tert-butyl-2-[2-(piperazin-1-yl)ethoxy]phenyl}-3-phenylindol-2-one] | 0.9 ± 0.1 | 1.2 ± 0.3 | 12.8 ± 0.8 | – | maximal fold induction at 20 µM [1, 5]: 2.1 ± 0.65
22 | CCN(CC)CCOc1ccc(C(C)(C)C)cc1C1(c2cc(C(C)(C)C)ccc2OCCN(CC)CC)C(=O)N(CCN(CC)CC)c2ccccc21 [HY296] | 0.59 ± 0.26 | 1.6 ± 0.5 | 0.72 ± 0.23 | – | maximal fold induction at 2.5 µM [1, 5]: 14.3 ± 0.78
